≈ marks a conversion by molar mass, not a printed value. Calls of active or inactive are those of the source. The calls are words filed in the database; no cut-off is given here.
Key:
[1] = molecular target: T1, NF-kappa-B inhibitor alpha (Mus musculus) (UniProt Q9Z1E3); assay: Inhibition of IkappaBalpha degradation in mouse RAW264.7 cells at 5 to 10 ug/ml preincubated for 1 hr followed by LPS-stimulation for 1 hr by Western blot method; format: cell-based
T1 sequence (whole entry): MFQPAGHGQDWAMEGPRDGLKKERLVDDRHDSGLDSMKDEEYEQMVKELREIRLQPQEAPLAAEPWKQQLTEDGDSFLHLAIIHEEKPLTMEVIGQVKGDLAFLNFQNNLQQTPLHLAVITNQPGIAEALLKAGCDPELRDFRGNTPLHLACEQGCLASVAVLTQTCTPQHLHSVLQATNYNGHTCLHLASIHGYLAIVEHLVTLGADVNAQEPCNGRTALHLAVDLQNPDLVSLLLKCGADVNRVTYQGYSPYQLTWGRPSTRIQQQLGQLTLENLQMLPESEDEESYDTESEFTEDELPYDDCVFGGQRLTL

RAW264.7 [2] = assay: Downregulation of IL-6 mRNA expression levels in mouse RAW264.7 cells at 5 to 10 ug/ml preincubated for 1 hr followed by LPS-stimulation for 4 hrs by qRT-PCR method; format: functional, cell-based
RAW264.7 [3] = assay: Cytotoxicity against mouse RAW264.7 cells assessed as decrease in cell viability at 1 to 12 ug/ml pretreated for 1 hr followed by LPS stimulation for 20 hrs by CCK8/EZ-cytox assay; format: cell-based; details: raw264.7, 20 h
[4] = molecular target: T2, Nitric oxide synthase, inducible (Mus musculus) (UniProt P29477); assay: Inhibition of LPS-induced iNOS expression in mouse RAW264.7 cells at 5 to 10 ug/ml pretreated for 1 hr followed by LPS stimulation for 20 hrs by immunoblotting method; format: cell-based
T2 sequence (whole entry): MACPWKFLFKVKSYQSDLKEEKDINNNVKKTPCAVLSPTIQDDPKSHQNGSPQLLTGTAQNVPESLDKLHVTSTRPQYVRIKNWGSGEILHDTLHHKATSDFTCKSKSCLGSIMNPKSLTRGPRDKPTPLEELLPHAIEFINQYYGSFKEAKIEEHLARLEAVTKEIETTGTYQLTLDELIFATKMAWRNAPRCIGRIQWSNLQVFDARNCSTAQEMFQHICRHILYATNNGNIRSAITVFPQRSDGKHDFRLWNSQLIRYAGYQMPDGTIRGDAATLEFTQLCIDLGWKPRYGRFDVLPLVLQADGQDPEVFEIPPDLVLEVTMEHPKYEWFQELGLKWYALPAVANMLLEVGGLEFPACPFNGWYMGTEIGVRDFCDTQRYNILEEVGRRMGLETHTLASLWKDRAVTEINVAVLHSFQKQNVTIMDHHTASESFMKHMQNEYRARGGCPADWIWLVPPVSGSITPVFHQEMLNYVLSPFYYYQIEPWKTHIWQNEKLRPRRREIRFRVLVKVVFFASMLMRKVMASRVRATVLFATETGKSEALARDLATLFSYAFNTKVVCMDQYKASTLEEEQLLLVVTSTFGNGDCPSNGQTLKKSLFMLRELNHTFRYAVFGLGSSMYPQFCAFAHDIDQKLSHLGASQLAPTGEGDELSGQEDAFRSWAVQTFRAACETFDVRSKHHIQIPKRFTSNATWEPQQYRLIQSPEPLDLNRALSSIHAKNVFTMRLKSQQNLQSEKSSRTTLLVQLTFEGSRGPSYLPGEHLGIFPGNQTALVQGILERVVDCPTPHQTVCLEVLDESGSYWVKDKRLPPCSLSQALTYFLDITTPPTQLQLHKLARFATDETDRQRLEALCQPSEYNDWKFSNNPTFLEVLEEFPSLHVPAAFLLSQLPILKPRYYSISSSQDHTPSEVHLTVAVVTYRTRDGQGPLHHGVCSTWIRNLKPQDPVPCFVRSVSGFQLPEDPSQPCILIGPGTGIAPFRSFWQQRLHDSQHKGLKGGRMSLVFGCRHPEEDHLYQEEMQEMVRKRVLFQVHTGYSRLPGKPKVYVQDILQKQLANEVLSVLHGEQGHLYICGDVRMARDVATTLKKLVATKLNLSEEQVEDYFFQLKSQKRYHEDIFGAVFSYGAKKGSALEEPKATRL

RAW264.7 [5] = assay: Antiinflammatory activity in mouse RAW264.7 cells assessed as inhibition of LPS-induced TNFalpha release preincubated for 1 hr followed by LPS addition for 20 hrs by sandwich ELISA; format: functional, cell-based
RAW264.7 [6] = assay: Antiinflammatory activity in mouse RAW264.7 cells assessed as inhibition of LPS-induced IL-6 production preincubated for 1 hr followed by LPS addition for 20 hrs by sandwich ELISA; format: functional, cell-based
RAW264.7 [7] = assay: Inhibition of LPS-induced NO production in mouse RAW264.7 cells at 2 to 10 ug/ml preincubated for 1 hr followed by LPS-stimulation measured after 20 hrs by Griess assay; format: functional, cell-based
RAW264.7 [8] = assay: Downregulation of TNFalpha mRNA expression levels in mouse RAW264.7 cells at 5 to 10 ug/ml preincubated for 1 hr followed by LPS-stimulation for 4 hrs by qRT-PCR method; format: functional, cell-based
RAW264.7 [9] = assay: Downregulation of iNOS mRNA expression levels in mouse RAW264.7 cells at 5 to 10 ug/ml preincubated for 1 hr followed by LPS-stimulation for 4 hrs by qRT-PCR method; format: functional, cell-based
[10] = molecular target: T1, NF-kappa-B inhibitor alpha (Mus musculus); assay: Inhibition of IkappaBalpha phosphorylation in mouse RAW264.7 cells at 5 to 10 ug/ml preincubated for 1 hr followed by LPS-stimulation for 1 hr by Western blot method; format: cell-based
[11] = molecular target: RAC-alpha serine/threonine-protein kinase (Mus musculus) (UniProt P31750); assay: Inhibition of Akt-phosphorylation in mouse RAW264.7 cells at 5 to 10 ug/ml preincubated for 1 hr followed by LPS-stimulation for 1 hr by Western blot analysis; format: cell-based
Mus musculus [12] = species on record: Mus musculus; assay: Inhibition of JNK-phosphorylation in mouse RAW264.7 cells at 5 to 10 ug/ml preincubated for 1 hr followed by LPS-stimulation for 1 hr by Western blot analysis; format: cell-based
Mus musculus [13] = species on record: Mus musculus; assay: Inhibition of ERK-phosphorylation in mouse RAW264.7 cells at 5 to 10 ug/ml preincubated for 1 hr followed by LPS-stimulation for 1 hr by Western blot analysis; format: cell-based
[14] = molecular target: MAP kinase p38 (Mus musculus) (UniProt P47811+O08911+Q9WUI1+Q9Z1B7); assay: Inhibition of p38-phosphorylation in mouse RAW264.7 cells at 5 to 10 ug/ml preincubated for 1 hr followed by LPS-stimulation for 1 hr by Western blot analysis; format: cell-based
[15] = molecular target: Protein c-Fos (Mus musculus) (UniProt P01101); assay: Inhibition of c-fos-phosphorylation in mouse RAW264.7 cells preincubated for 1 hr followed by LPS-stimulation for 20 hrs by Western blot analysis; format: cell-based
[16] = molecular target: Signal transducer and activator of transcription 3 (Mus musculus) (UniProt P42227); assay: Inhibition of STAT3 phosphorylation at Y705 residue in mouse RAW264.7 cells preincubated for 1 hr followed by LPS-stimulation for 20 hrs by Western blot analysis; format: cell-based
[17] = molecular target: Signal transducer and activator of transcription 3 (Mus musculus) (UniProt P42227); assay: Inhibition of STAT3 phosphorylation at S727 residue in mouse RAW264.7 cells preincubated for 1 hr followed by LPS-stimulation for 20 hrs by Western blot analysis; format: cell-based
RAW264.7 [18] = assay: Cytotoxicity against mouse RAW264.7 cells assessed as decrease in cell viability incubated for 20 hrs by EZ-cytox assay; format: cell-based; details: RAW264.7, 20 h

Sequence of Signal transducer and activator of transcription 3 (Mus musculus) (P42227 whole entry): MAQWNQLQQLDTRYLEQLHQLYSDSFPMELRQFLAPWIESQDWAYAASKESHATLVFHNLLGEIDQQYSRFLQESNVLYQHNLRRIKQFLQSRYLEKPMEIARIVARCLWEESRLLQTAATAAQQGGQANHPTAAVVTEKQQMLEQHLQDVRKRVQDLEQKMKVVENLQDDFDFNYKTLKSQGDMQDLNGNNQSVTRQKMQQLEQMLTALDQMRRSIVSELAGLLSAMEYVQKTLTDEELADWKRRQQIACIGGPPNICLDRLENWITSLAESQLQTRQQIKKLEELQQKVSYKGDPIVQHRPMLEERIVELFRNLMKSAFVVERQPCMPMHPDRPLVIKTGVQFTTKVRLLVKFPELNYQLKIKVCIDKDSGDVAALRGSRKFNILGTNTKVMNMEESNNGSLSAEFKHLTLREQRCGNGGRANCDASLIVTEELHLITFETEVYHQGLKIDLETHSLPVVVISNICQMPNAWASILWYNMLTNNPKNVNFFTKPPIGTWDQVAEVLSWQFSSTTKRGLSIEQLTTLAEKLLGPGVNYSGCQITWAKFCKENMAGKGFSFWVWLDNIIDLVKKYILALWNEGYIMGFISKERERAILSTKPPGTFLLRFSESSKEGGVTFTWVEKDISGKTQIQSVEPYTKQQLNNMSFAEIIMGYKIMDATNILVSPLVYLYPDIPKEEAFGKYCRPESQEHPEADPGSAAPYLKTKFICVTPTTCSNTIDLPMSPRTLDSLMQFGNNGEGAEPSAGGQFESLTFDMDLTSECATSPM
Sequence of RAC-alpha serine/threonine-protein kinase (Mus musculus) (P31750 whole entry): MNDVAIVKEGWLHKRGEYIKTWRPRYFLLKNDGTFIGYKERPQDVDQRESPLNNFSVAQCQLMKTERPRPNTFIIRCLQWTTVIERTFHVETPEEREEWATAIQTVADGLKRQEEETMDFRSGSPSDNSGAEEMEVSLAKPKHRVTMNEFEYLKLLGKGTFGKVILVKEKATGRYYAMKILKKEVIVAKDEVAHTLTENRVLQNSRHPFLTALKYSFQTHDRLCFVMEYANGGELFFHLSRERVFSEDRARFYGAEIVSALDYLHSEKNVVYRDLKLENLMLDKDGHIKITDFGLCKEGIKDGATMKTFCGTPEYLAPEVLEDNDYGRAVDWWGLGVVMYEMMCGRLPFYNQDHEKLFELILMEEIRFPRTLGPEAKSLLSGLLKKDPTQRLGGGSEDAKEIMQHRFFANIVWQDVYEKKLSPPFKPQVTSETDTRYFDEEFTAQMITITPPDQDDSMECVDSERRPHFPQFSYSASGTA
Sequence of Protein c-Fos (Mus musculus) (P01101 whole entry): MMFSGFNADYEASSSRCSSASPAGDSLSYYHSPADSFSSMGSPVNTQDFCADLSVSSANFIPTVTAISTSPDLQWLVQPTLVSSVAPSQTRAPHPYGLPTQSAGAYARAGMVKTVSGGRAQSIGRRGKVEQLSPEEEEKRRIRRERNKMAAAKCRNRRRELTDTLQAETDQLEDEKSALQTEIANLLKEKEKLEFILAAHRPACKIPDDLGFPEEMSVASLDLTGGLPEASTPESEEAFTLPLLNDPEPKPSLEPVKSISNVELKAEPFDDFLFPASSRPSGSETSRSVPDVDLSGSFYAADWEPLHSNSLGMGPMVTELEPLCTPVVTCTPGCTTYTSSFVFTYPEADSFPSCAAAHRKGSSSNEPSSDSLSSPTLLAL

SMILES: COc1cc2oc(-c3ccc(O)cc3)cc(=O)c2c(O)c1OC [CIRSIMARITIN]
- inhibition [1]: Active
- Activity (RAW264.7 [2]): Dose-dependent effect
- Activity (RAW264.7 [3]): Non-Toxic
- inhibition [4]: Active
- inhibition (RAW264.7 [5]): Dose-dependent effect
- inhibition (RAW264.7 [6]): Dose-dependent effect
- inhibition (RAW264.7 [7]): Active
- Activity (RAW264.7 [8]): Dose-dependent effect
- Activity (RAW264.7 [9]): Dose-dependent effect
- inhibition [10]: Active
- inhibition [11]: Active
- inhibition (Mus musculus [12]): inactive
- inhibition (Mus musculus [13]): inactive
- inhibition [14]: inactive
- inhibition [15]: Dose-dependent effect
- inhibition [16]: Dose-dependent effect
- inhibition [17]: Dose-dependent effect
- IC50 (RAW264.7 [18]): 111 µg/mL (≈ 353 µM)

Source: ChEMBL document CHEMBL4020798, “Anti-inflammatory effects and corresponding mechanisms of cirsimaritin extracted from Cirsium japonicum var. maackii Maxim” (Bioorg Med Chem Lett, 2017)
